The results in this text go back to ChEMBL document CHEMBL3421624, “Design and Synthesis of Antitumor Heck-Coupled Sclareol Analogues: Modulation of BH3 Family Members by SS-12 in Autophagy and Apoptotic Cell Death” (J Med Chem, 2015).

Experiment [1] deals with PC-3. Briefly: Induction of autophagy in human PC3 cells assessed as increase in punctate EGFP-LC3 pattern in autophagosomes at 300 nM after 24 hrs by fluorescence microscopy. The class given is functional, cell-based.
For experiment [2], the system named is PC-3. Briefly: Induction of autophagy in human PC3 cells assessed as increase in punctate EGFP-LC3 pattern in autophagosomes at 100 nM after 24 hrs by fluorescence microscopy. The class given is functional, cell-based.
The test system of experiment [3] is PC-3. Briefly: Induction of autophagy in human PC3 cells assessed as increase LC3 intracellular localization at 100 nM after 24 hrs by immunocytochemistry. The class given is functional, cell-based.
A short description of experiment [4]: Cytotoxicity against human PC3 cells after 48 hrs by MTT assay. As to conditions: PC-3, 48 h. The class given is functional, cell-based.
The subject of a further experiment is HeLa. Briefly: Cytotoxicity against human HeLa cells after 48 hrs by MTT assay. The class given is functional, cell-based. Background: Tetrazolium dyes change colour on reduction, which living cells bring about.
In another experiment the test system is A549. Briefly: Cytotoxicity against human A549 cells after 48 hrs by MTT assay. The class given is functional, cell-based. The note with it: A549, 48 h.
Experiment [5] deals with PC-3. Briefly: Induction of autophagy in human PC3 cells at 100 to 300 nM after 24 hrs by acridine orange staining based fluorescence microscopy. The class given is functional.
The subject of experiment [6] is PC-3. Briefly: Induction of autophagy in human PC3 cells at 100 to 300 nM after 24 hrs by MDC staining based fluorescence microscopy. The class given is functional, cell-based.
In experiment [7] the test system is PC-3. Briefly: Induction of autophagy in human PC3 cells at 100 to 300 nM after 24 hrs. The class given is functional, cell-based.
In experiment [8] the test system is PC-3. Briefly: Effect on Beclin-1 protein expression in human PC3 cells at 0.2 to 0.3 uM after 24 hrs by immunoblotting method. The class given is functional, cell-based. For orientation: In western blotting, separated proteins are transferred to a membrane and probed.
Experiment [9] concerns PC-3. Briefly: Induction of apoptosis in human PC3 cells at 100 to 300 nM after 24 hrs. The class given is functional, cell-based.
The subject of experiment [10] is PC-3. Briefly: Inhibition of Akt in human PC3 cells assessed as reduction in mTOR S2448 phosphorylation at 0.1 to 0.3 uM after 24 hrs by Western blotting method. The class given is cell-based.
Experiment [11] has as its system PC-3. Briefly: Inhibition of Akt S473 phosphorylation in human PC3 cells at 0.1 to 0.3 uM after 24 hrs by Western blotting method. The class given is cell-based.
Experiment [12] relates to PC-3. Briefly: Effect on SQSTM1/P62 protein expression in human PC3 cells at 0.2 to 0.3 uM after 24 hrs by immunoblotting method. The class given is functional, cell-based.
For experiment [13], the system named is PC-3. Briefly: Effect on MAP1LC3 I/II protein expression in human PC3 cells at 0.2 to 0.3 uM after 24 hrs by immunoblotting method. The class given is functional, cell-based.
For experiment [14], the system named is PC-3. Briefly: Induction of apoptosis in human PC3 cells assessed as caspase-3 cleavage at 300 nM after 24 hrs by Western blotting method. The class given is functional, cell-based.

Active and inactive are the calls of the source. The calls are words filed in the database; no cut-off is given here.

In the case of `CO/C1=C\C(C)=C\[C@@H](C)[C@@H](O)[C@@H](C)C/C(C)=C/C=C/[C@H](OC)[C@@H]([C@@H](C)[C@@H](O)[C@H](C)[C@@]2(O)C[C@@H](O)[C@H](C)[C@@H](C(C)C)O2)OC1=O`, the result in the experiment on PC-3 [1] was inactive.
For `CO[C@H]1C[C@@H]2CC[C@@H](C)[C@@](O)(O2)C(=O)C(=O)N2CCCC[C@H]2C(=O)O[C@H]([C@H](C)C[C@@H]2CC[C@@H](O)[C@H](OC)C2)CC(=O)[C@H](C)/C=C(\C)[C@@H](O)[C@@H](OC)C(=O)[C@H](C)C[C@H](C)/C=C/C=C/C=C/1C`, the result with PC-3 [2] and with PC-3 [3] was inactive.
For orientation: IC50 means the concentration at which inhibition is half-maximal. For the compound `CC1(C)CCC[C@]2(C)[C@@H](CC[C@@](C)(O)/C=C/c3ccc(Br)cc3)[C@](C)(O)CC[C@@H]12`, the figures for the IC50 (in [4]; in the experiment on HeLa; with A549) were 41.3 µM, 45.9 µM and 43.2 µM, respectively.
As to `CC1(C)CCC[C@]2(C)[C@@H](CC[C@@](C)(O)/C=C/c3ccc(Cl)nc3)[C@](C)(O)CC[C@@H]12`, the IC50 was 0.275 µM in [4], 3.68 µM in the experiment on HeLa and 3.28 µM in the experiment with A549.
`CN[C@@H]1C[C@H]2O[C@@](C)([C@@H]1OC)n1c3ccccc3c3c4c(c5c6ccccc6n2c5c31)C(=O)NC4` [STAUROSPORINE] had an IC50 in experiment [4] of 0.031 µM. This counts as double-digit nanomolar.
Take `Cc1cccc(/C=C/[C@](C)(O)CC[C@@H]2[C@@]3(C)CCCC(C)(C)[C@@H]3CC[C@@]2(C)O)c1C`: the half-maximal inhibitory concentration (IC50) stood at 3.5 µM in [4], 3.7 µM in the experiment on HeLa and 3.8 µM with A549.
With `Cc1cccc(C)c1/C=C/[C@](C)(O)CC[C@@H]1[C@@]2(C)CCCC(C)(C)[C@@H]2CC[C@@]1(C)O`, the IC50 in experiment [4] worked out at 0.278 µM; in the experiment with HeLa, 3.46 µM; in the experiment with A549 it was 3.34 µM.
On the same counts, the results for `COc1cccc(OC)c1/C=C/[C@](C)(O)CC[C@@H]1[C@@]2(C)CCCC(C)(C)[C@@H]2CC[C@@]1(C)O` are 4 µM, 48.2 µM and 42 µM.
For the compound `CC1(C)CCC[C@]2(C)[C@@H](CC[C@@](C)(O)/C=C/c3c4ccccc4c(Br)c4ccccc34)[C@](C)(O)CC[C@@H]12`, the IC50 stood at 0.301 µM in experiment [4], 46 µM in the experiment with HeLa and 44.9 µM with A549.
Turning to `CC1(C)CCC[C@]2(C)[C@@H](CC[C@@](C)(O)/C=C/c3ccccc3)[C@](C)(O)CC[C@@H]12`, the IC50 in [4] is 0.121 µM; with HeLa, 3.32 µM; with A549 it was 3.15 µM. Further, the result in the experiment on PC-3 [5] and with PC-3 [6] was Active.
On to `CC(C)(C)c1ccc(/C=C/[C@](C)(O)CC[C@@H]2[C@@]3(C)CCCC(C)(C)[C@@H]3CC[C@@]2(C)O)cc1`, for which the values for the IC50 (in experiment [4]; with HeLa; in the experiment on A549) were 3.8 µM, 48.5 µM and 45 µM, respectively.
Turning to `Cc1ccc(C)c(/C=C/[C@](C)(O)CC[C@@H]2[C@@]3(C)CCCC(C)(C)[C@@H]3CC[C@@]2(C)O)c1`, the IC50 in [4] came out at 0.176 µM; with HeLa it was 3.38 µM; in the experiment on A549 it was 3.32 µM. Moreover, the outcome in the experiment with PC-3 [5] and in the experiment with PC-3 [6] was Active.
Turning to `CC1(C)CCC[C@]2(C)[C@@H](CC[C@@](C)(O)/C=C/c3cncc4ccccc34)[C@](C)(O)CC[C@@H]12`, the IC50 in [4] was determined as 3.9 µM; in the experiment with HeLa, 46 µM; in the experiment with A549, 45.7 µM.
Take `C=C[C@](C)(O)CC[C@@H]1[C@@]2(C)CCCC(C)(C)[C@@H]2CC[C@@]1(C)O` [SCLAREOL]: the results for the IC50 (in experiment [4]; in the experiment with HeLa; in the experiment with A549) were 0.105 µM, 3.35 µM and 3.21 µM, respectively. The Activity entry in the experiment on PC-3 [5] is on record as “<=5%”. The outcome with PC-3 [7], in the experiment with PC-3 [8], with PC-3 [9], with PC-3 [12] and in the experiment on PC-3 [13] was inactive. The inhibition result in the experiment on PC-3 [10] and in the experiment with PC-3 [11] was “Active” each time. The result in the experiment with PC-3 [14] was Active.
Regarding `COc1cccc(/C=C/[C@](C)(O)CC[C@@H]2[C@@]3(C)CCCC(C)(C)[C@@H]3CC[C@@]2(C)O)c1OC`, the IC50 in [4] amounted to 2.9 µM; in the experiment on HeLa, 3.88 µM; in the experiment with A549, 3.28 µM.
With `CC1(C)CCC[C@]2(C)[C@@H](CC[C@@](C)(O)/C=C/c3ccc(C(=O)O)cc3)[C@](C)(O)CC[C@@H]12`, the figures for the IC50 (in experiment [4]; with HeLa; in the experiment on A549) were 0.102 µM, 45.4 µM and 44.3 µM, respectively. For the same compound, the result in the experiment on PC-3 [5] and in the experiment on PC-3 [6] was Active.
On to `CC1(C)CCC[C@]2(C)[C@@H](CC[C@@](C)(O)/C=C/c3ccc(Oc4ccccc4)cc3)[C@](C)(O)CC[C@@H]12`, for which the IC50 was determined as 0.268 µM in [4], 3.48 µM with HeLa and 3.2 µM in the experiment with A549.
Take `CC1(C)CCC[C@]2(C)[C@@H](CC[C@@](C)(O)/C=C/c3cccc([N+](=O)[O-])c3)[C@](C)(O)CC[C@@H]12`: the figures for the IC50 (in experiment [4]; in the experiment on HeLa; with A549) were 0.153 µM, 3.38 µM and 3.4 µM, respectively. For the same compound, the result with PC-3 [5] and in the experiment with PC-3 [6] was Active.
